According to ChEMBL document CHEMBL3856243, “Structure-Activity Relationships and Kinetic Studies of Peptidic Antagonists of CBX Chromodomains” (J Med Chem, 2016):
Calls of active or inactive are those of the source. No cut-off for these calls is given here. Numbered stars: 1 amine (or outer) side, 2 acyl side, 3 side chain; on linkers, the order of the positions; unused ones are H or OH. Square brackets hold non-standard residues; d marks the D form. Peptide text beside a SMILES is read from it. * marks the point of attachment. X17 = CC(=O)N(CCCC[C@H](N[*:1])C(=O)[*:2])C1CC2CCC1C2; X5 = O=C([C@H](CCCCNC1C2CC3CC(C2)CC1C3)N[*:1])[*:2]; X3 = CN(C)C(NCCCC[C@H](N[*:1])C(=O)[*:2])=[N+](C)C; X15 = O=C([C@H](CCCCNC1CN2CCC1CC2)N[*:1])[*:2]; X14 = CCCN(CCCC[C@H](N[*:1])C(=O)[*:2])C(C)C; X8 = O=C([C@H](CCCCNC1CC2CCC1C2)N[*:1])[*:2]; Phe(4-CH2NH2) = NCc1ccc(C[C@H](N)C(=O)O)cc1; X19 = CN(CCCC[C@H](N[*:1])C(=O)[*:2])C1CNC1; Acetyl(2-naphthyl) = O=C(Cc1ccc2ccccc2c1)*; Lys(Et,iPr) = CCN(CCCC[C@H](N)C(=O)O)C(C)C; Benzoyl(4-tBu) = CC(C)(C)c1ccc(C(=O)*)cc1; Lys(Et2) = CCN(CC)CCCC[C@H](N)C(=O)O; Benzoyl(4-OMe) = COc1ccc(C(=O)*)cc1; Benzoyl(4-Me) = Cc1ccc(C(=O)*)cc1; X18 = O=C(Cc1c[nH]c2ccccc12)*; X2 = Cc1cccc(C(=O)*)c1; Boc = CC(C)(C)OC(=O)*; X1 = Cc1ccccc1C(=O)*; Bz = O=C(c1ccccc1)*

How the values were obtained:
[1] = target: T1, Chromobox protein homolog 7 (Homo sapiens) (UniProt O95931); assay: Binding affinity to recombinant human C-terminal His-tagged CBX7 chromodomain (8 to 62 residues) expressed in Escherichia coli Rosetta BL21(DE3)pLysS by SPR method
T1 sequence (whole entry): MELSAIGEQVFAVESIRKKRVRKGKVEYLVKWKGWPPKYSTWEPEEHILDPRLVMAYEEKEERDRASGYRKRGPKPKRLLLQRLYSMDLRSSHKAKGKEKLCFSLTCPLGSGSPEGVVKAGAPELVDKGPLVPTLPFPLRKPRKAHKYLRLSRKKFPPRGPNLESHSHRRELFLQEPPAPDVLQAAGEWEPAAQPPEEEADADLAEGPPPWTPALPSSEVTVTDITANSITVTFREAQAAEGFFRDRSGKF

[2] = target: T2, Chromobox protein homolog 7 (Homo sapiens, UniProt O95931); assay: Antagonist activity at recombinant human C-terminal His-tagged CBX7 chromodomain (8 to 62 residues) expressed in Escherichia coli Rosetta BL21(DE3)pLysS using biotin-labeled UNC4195 measured after 30 mins by AlphaScreen assay
T2 sequence (O95931 whole entry): T1 sequence (whole entry)

[3] = target: Chromobox protein homolog 5 (Homo sapiens, UniProt P45973); assay: Antagonist activity at recombinant human N-terminal His-tagged CBX5 chromodomain (18 to 75 residues) expressed in Escherichia coli Rosetta BL21(DE3)pLysS using ARTKQTARK(Me3)STGGKAPRKQL-K(Biotin)-NH2 measured after 30 mins by AlphaScreen assay
Chromobox protein homolog 5, sequence (P45973 whole entry, the tested form may be a part): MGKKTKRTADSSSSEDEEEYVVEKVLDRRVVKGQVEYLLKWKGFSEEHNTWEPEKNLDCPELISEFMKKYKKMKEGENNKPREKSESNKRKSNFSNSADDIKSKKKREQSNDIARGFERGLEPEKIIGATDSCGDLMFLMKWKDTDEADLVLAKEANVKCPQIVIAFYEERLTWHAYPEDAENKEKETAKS

[4] = target: T3, Chromodomain Y-like protein 2 (Homo sapiens, UniProt Q8N8U2); assay: Antagonist activity at recombinant human C-terminal His-tagged CDYL2 chromodomain (1 to 75 residues) expressed in Escherichia coli Rosetta BL21(DE3)pLysS using biotin-labeled UNC4195 measured after 30 mins by AlphaScreen assay
T3 sequence (Q8N8U2 whole entry): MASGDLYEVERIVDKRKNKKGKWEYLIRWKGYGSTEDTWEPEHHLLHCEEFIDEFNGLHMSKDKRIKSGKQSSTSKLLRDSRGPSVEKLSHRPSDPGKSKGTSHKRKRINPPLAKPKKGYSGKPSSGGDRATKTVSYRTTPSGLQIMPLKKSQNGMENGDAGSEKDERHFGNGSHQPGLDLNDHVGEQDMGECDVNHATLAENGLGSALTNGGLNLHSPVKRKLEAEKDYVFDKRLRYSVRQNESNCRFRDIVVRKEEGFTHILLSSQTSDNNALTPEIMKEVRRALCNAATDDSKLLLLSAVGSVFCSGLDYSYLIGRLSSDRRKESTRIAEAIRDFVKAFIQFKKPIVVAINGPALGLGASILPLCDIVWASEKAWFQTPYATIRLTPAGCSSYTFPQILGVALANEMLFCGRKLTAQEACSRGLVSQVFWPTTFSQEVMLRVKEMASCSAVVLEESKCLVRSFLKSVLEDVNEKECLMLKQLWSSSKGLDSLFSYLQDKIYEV

[5] = target: T4, E3 SUMO-protein ligase CBX4 (Homo sapiens, UniProt O00257); assay: Antagonist activity at recombinant human N-terminal His-tagged CBX4 chromodomain (8 to 65 residues) expressed in Escherichia coli Rosetta BL21(DE3)pLysS using biotin-labeled UNC4195 measured after 30 mins by AlphaScreen assay
T4 sequence (O00257 whole entry): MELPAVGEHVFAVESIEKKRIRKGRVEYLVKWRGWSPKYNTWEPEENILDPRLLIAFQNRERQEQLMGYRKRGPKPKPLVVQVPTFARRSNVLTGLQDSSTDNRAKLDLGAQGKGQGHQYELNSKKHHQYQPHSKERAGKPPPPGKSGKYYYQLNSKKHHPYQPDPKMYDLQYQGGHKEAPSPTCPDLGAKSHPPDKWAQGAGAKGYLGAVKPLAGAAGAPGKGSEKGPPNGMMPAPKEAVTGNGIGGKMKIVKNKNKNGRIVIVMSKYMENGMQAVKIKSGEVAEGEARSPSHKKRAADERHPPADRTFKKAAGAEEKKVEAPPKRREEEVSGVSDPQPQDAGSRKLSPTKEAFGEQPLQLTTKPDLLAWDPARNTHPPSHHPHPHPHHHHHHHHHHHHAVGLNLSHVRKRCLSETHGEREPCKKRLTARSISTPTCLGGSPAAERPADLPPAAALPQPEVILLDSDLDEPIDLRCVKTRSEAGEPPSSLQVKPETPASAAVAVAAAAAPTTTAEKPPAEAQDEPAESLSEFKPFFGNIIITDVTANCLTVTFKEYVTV

[6] = target: T5, Chromobox protein homolog 8 (Homo sapiens, UniProt Q9HC52); assay: Antagonist activity at recombinant human N-terminal His-tagged CBX8 chromodomain (8 to 61 residues) expressed in Escherichia coli Rosetta BL21(DE3)pLysS using biotin-labeled UNC4195 measured after 30 mins by AlphaScreen assay
T5 sequence (Q9HC52 whole entry): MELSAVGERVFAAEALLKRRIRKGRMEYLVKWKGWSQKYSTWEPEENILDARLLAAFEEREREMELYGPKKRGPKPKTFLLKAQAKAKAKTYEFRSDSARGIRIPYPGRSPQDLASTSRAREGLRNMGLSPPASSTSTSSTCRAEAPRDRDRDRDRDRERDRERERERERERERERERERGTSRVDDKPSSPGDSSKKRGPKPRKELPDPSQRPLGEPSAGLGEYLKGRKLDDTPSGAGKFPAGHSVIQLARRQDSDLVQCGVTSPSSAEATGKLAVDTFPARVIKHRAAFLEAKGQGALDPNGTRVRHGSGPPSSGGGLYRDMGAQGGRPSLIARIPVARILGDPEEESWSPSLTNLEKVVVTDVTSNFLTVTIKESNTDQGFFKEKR

Structure (SMILES) | Activity [1] | IC50 [2] | IC50 [3] | IC50 [4] | IC50 [5] | IC50 [6]
CCN(CC)CCCC[C@H](NC(=O)[C@H](CC(C)C)NC(=O)[C@H](C)NC(=O)[C@H](Cc1ccccc1)NC(=O)c1ccccc1C)C(=O)N[C@@H](CO)C(=O)OC (X1-FAL[Lys(Et2)]S-OMe) | Active | – | – | – | – | –
COC(=O)[C@H](CO)NC(=O)[C@H](CCCCN(C(C)=O)C1CC2CCC1C2)NC(=O)[C@H](CC(C)C)NC(=O)[C@H](C)NC(=O)[C@H](Cc1ccccc1)NC(=O)CNC(=O)c1ccccc1 (stereo partly specified) (Bz-GFAL[X17]S-OMe) | – | > 60 µM | > 60 µM | 38 µM | > 60 µM | > 60 µM
CCN(CC)CCCC[C@H](NC(=O)[C@H](CC(C)C)NC(=O)[C@H](C)NC(=O)[C@H](Cc1ccc(CNC(=O)OC(C)(C)C)cc1)NC(=O)c1ccc(C(C)(C)C)cc1)C(=O)N[C@@H](CO)C(=O)OC ({Benzoyl(4-tBu)}-[Phe(4-CH2NH2)](Boc)AL[Lys(Et2)]S-OMe) | – | 0.056 µM | 44 µM | 0.16 µM | – | 1.7 µM
CCN(CC)CCCC[C@H](NC(=O)[C@H](CC(C)C)NC(=O)[C@H](C)NC(=O)[C@H](Cc1ccc(CN)cc1)NC(=O)c1ccc(C(C)(C)C)cc1)C(=O)N[C@@H](CO)C(=O)OC ({Benzoyl(4-tBu)}-[Phe(4-CH2NH2)]AL[Lys(Et2)]S-OMe) | – | 0.063 µM | 53 µM | 0.075 µM | – | 2.4 µM
COC(=O)[C@H](CO)NC(=O)[C@H](CCCCNC1CN2CCC1CC2)NC(=O)[C@H](CC(C)C)NC(=O)[C@H](C)NC(=O)[C@H](Cc1ccccc1)NC(=O)CNC(=O)c1ccccc1 (stereo partly specified) (Bz-GFAL[X15]S-OMe) | – | > 60 µM | > 60 µM | 24 µM | > 60 µM | > 60 µM
COC(=O)[C@H](CO)NC(=O)[C@H](CCCCNC(N(C)C)=[N+](C)C)NC(=O)[C@H](CC(C)C)NC(=O)[C@H](C)NC(=O)[C@H](Cc1ccccc1)NC(=O)CNC(=O)c1ccccc1 (Bz-GFAL[X3]S-OMe) | – | > 60 µM | > 60 µM | – | > 60 µM | > 60 µM
COC(=O)[C@H](CO)NC(=O)[C@H](CCCCNC1CC2CCC1C2)NC(=O)[C@H](CC(C)C)NC(=O)[C@H](C)NC(=O)[C@H](Cc1ccccc1)NC(=O)CNC(=O)c1ccccc1 (stereo partly specified) (Bz-GFAL[X8]S-OMe) | – | 51 µM | > 60 µM | 5 µM | > 60 µM | > 60 µM
CCN(CC)CCCC[C@H](NC(=O)[C@H](CC(C)C)NC(=O)[C@H](C)NC(=O)[C@H](Cc1ccccc1)NC(=O)c1ccc(OC)cc1)C(=O)N[C@@H](CO)C(=O)OC ({Benzoyl(4-OMe)}-FAL[Lys(Et2)]S-OMe) | – | 0.25 µM | 12 µM | 0.26 µM | 0.75 µM | 3.3 µM
CCCN(CCCC[C@H](NC(=O)[C@H](CC(C)C)NC(=O)[C@H](C)NC(=O)[C@H](Cc1ccccc1)NC(=O)c1ccc(C(C)(C)C)cc1)C(=O)N[C@@H](CO)C(=O)OC)C(C)C ({Benzoyl(4-tBu)}-FAL[X14]S-OMe) | – | 0.032 µM | > 60 µM | 0.11 µM | 0.062 µM | –
CCN(CC)CCCC[C@H](NC(=O)[C@H](CC(C)C)NC(=O)[C@H](C)NC(=O)[C@H](Cc1ccccc1)NC(=O)Cc1ccc2ccccc2c1)C(=O)N[C@@H](CO)C(=O)OC ({Acetyl(2-naphthyl)}-FAL[Lys(Et2)]S-OMe) | – | 1.1 µM | > 60 µM | 0.084 µM | 5.2 µM | 24 µM
CCN(CC)CCCC[C@H](NC(=O)[C@H](CC(C)C)NC(=O)[C@H](C)NC(=O)[C@H](Cc1ccccc1)NC(=O)CNC(=O)c1ccccc1)C(=O)N[C@@H](CO)C(=O)OC (Bz-GFAL[Lys(Et2)]S-OMe) | – | – | – | – | 46 µM | –
CCN(CC)CCCC[C@H](NC(=O)[C@H](CC(C)C)NC(=O)[C@H](C)NC(=O)[C@H](Cc1ccccc1)NC(=O)c1cccc(C)c1)C(=O)N[C@@H](CO)C(=O)OC (X2-FAL[Lys(Et2)]S-OMe) | Active | – | – | – | – | –
CCN(CC)CCCC[C@H](NC(=O)[C@H](CC(C)C)NC(=O)[C@H](C)NC(=O)[C@H](Cc1ccccc1)NC(=O)Cc1c[nH]c2ccccc12)C(=O)N[C@@H](CO)C(=O)OC (X18-FAL[Lys(Et2)]S-OMe) | – | 1.7 µM | > 60 µM | 0.11 µM | – | 15 µM
COC(=O)[C@H](CO)NC(=O)[C@H](CCCCN(C)C1CNC1)NC(=O)[C@H](CC(C)C)NC(=O)[C@H](C)NC(=O)[C@H](Cc1ccccc1)NC(=O)CNC(=O)c1ccccc1 (Bz-GFAL[X19]S-OMe) | – | > 60 µM | > 60 µM | 8.6 µM | > 60 µM | > 60 µM
CCN(CCCC[C@H](NC(=O)[C@H](CC(C)C)NC(=O)[C@H](C)NC(=O)[C@H](Cc1ccccc1)NC(=O)c1ccc(C(C)(C)C)cc1)C(=O)N[C@@H](CO)C(=O)OC)C(C)C ({Benzoyl(4-tBu)}-FAL[Lys(Et,iPr)]S-OMe) | – | – | > 60 µM | – | – | 1 µM
CCN(CC)CCCC[C@H](NC(=O)[C@H](CC(C)C)NC(=O)[C@H](C)NC(=O)[C@H](Cc1ccccc1)NC(=O)c1ccc(C)cc1)C(=O)N[C@@H](CO)C(=O)OC ({Benzoyl(4-Me)}-FAL[Lys(Et2)]S-OMe) | Active | – | – | – | – | –
COC(=O)[C@H](CO)NC(=O)[C@H](CCCCNC1C2CC3CC(C2)CC1C3)NC(=O)[C@H](CC(C)C)NC(=O)[C@H](C)NC(=O)[C@H](Cc1ccccc1)NC(=O)CNC(=O)c1ccccc1 (stereo partly specified) (Bz-GFAL[X5]S-OMe) | – | > 60 µM | > 60 µM | 14 µM | > 60 µM | > 60 µM
